# Data taken from ChEMBL document CHEMBL1155237, “Selective inhibitors of the mutant B-Raf pathway: discovery of a potent and orally bioavailable aminoisoquinoline” (J Med Chem, 2009).
# How the values were obtained:
# [1] = biological target: Phosphatidylinositol 4,5-bisphosphate 3-kinase catalytic subunit alpha isoform (Homo sapiens) (UniProt P42336); experiment: Inhibition of PIK3CA assessed as enzyme activity at 1 uM relative to untreated control; set-up: scale not given: the % may be the effect or the level left
# Chain of Phosphatidylinositol 4,5-bisphosphate 3-kinase catalytic subunit alpha isoform (Homo sapiens) (P42336 whole entry, the tested form may be a part, canonical isoform): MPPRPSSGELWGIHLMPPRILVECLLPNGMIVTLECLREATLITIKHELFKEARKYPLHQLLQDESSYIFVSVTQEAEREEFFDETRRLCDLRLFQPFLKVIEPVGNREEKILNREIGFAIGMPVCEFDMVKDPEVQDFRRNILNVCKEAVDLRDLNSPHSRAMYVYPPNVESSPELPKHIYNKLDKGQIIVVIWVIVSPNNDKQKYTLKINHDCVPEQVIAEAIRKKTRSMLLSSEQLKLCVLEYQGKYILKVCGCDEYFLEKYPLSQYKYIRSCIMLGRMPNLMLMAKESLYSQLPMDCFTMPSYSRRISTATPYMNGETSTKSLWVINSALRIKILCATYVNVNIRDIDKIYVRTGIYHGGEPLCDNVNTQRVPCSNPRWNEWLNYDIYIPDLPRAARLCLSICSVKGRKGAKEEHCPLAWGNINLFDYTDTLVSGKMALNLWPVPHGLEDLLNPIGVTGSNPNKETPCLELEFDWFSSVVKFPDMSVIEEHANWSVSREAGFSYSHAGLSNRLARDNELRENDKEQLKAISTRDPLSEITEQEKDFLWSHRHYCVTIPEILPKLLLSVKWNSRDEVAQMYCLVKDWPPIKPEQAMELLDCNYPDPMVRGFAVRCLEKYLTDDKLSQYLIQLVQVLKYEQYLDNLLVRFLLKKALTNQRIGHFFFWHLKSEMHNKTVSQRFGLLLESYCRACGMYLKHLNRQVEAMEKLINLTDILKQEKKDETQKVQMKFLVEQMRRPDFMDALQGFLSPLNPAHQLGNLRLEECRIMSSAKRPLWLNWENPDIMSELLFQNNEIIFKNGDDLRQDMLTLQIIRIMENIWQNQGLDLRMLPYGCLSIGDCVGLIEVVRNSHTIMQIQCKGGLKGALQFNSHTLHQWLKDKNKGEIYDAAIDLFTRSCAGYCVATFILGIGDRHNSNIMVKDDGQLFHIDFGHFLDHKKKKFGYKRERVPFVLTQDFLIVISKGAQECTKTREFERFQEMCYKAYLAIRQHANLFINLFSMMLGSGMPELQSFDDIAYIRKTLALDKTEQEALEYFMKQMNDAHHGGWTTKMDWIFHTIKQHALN
# [2] = biological target: Ribosomal protein S6 kinase alpha-1 (Homo sapiens) (UniProt Q15418); experiment: Inhibition of RPS6KA1 kinase domain 2 assessed as enzyme activity at 1 uM relative to untreated control; set-up: scale not given: the % may be the effect or the level left
# [3] = biological target: Vascular endothelial growth factor receptor 3 (Homo sapiens) (UniProt P35916); experiment: Inhibition of FLT4 assessed as enzyme activity at 1 uM relative to untreated control; set-up: scale not given: the % may be the effect or the level left
# [4] = biological target: Casein kinase II subunit alpha' (Homo sapiens) (UniProt P19784); experiment: Inhibition of CSNK2A2 assessed as enzyme activity at 1 uM relative to untreated control; set-up: scale not given: the % may be the effect or the level left
# [5] = biological target: Serine/threonine-protein kinase SIK1 (Homo sapiens) (UniProt P57059); experiment: Inhibition of SNF1LK assessed as enzyme activity at 1 uM relative to untreated control; set-up: scale not given: the % may be the effect or the level left
# [6] = Clearance in CD1 mouse; format: ADME, organism-based; settings: in vivo
# [7] = system: Tyrosine-protein kinase ABL1 (Homo sapiens), P00519 [F317L]; experiment: Inhibition of ABL1 F317L mutant assessed as enzyme activity at 1 uM relative to untreated control; set-up: scale not given: the % may be the effect or the level left
# [8] = biological target: Cyclin-dependent kinase 9 (Homo sapiens) (UniProt P50750); experiment: Inhibition of CDK9 assessed as enzyme activity at 1 uM relative to untreated control; set-up: scale not given: the % may be the effect or the level left
# [9] = biological target: Serine/threonine-protein kinase PAK 4 (Homo sapiens) (UniProt O96013); experiment: Inhibition of PAK4 assessed as enzyme activity at 1 uM relative to untreated control; set-up: scale not given: the % may be the effect or the level left
# Chain of Serine/threonine-protein kinase PAK 4 (Homo sapiens) (O96013 whole entry, looked up): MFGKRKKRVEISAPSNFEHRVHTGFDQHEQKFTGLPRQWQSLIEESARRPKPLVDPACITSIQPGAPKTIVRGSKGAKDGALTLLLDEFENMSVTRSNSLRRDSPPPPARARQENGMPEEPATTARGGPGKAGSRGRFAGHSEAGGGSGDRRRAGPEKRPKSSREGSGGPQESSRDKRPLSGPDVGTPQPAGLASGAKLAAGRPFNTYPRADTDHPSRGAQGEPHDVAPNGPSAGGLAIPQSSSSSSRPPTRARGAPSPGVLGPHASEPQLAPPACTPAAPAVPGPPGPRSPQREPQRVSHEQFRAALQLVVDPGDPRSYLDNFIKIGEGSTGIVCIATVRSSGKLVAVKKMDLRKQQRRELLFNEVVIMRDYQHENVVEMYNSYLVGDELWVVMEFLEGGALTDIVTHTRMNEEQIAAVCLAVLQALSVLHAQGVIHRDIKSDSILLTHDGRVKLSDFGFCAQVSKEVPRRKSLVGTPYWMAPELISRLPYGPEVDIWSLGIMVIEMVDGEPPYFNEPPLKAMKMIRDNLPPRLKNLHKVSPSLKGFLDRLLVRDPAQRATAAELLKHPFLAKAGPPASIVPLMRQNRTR
# [10] = biological target: Calcium/calmodulin-dependent protein kinase type II subunit delta (Homo sapiens) (UniProt Q13557); experiment: Inhibition of CAMK2D assessed as enzyme activity at 1 uM relative to untreated control; set-up: scale not given: the % may be the effect or the level left
# [11] = biological target: Serine/threonine-protein kinase Nek2 (Homo sapiens) (UniProt P51955); experiment: Inhibition of NEK2 assessed as enzyme activity at 1 uM relative to untreated control; set-up: scale not given: the % may be the effect or the level left
# Chain of Serine/threonine-protein kinase Nek2 (Homo sapiens) (P51955 whole entry, the tested form may be a part): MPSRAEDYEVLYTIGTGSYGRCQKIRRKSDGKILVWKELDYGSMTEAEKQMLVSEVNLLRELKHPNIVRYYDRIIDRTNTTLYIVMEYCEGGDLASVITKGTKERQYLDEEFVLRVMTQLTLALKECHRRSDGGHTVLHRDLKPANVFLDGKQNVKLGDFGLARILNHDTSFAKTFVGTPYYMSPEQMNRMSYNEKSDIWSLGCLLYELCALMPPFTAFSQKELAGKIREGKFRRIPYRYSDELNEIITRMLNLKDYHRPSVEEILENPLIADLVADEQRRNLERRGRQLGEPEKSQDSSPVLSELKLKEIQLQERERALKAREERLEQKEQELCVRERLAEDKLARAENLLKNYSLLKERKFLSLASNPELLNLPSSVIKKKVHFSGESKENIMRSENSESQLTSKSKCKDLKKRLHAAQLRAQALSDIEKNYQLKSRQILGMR
# [12] = biological target: Epithelial discoidin domain-containing receptor 1 (Homo sapiens) (UniProt Q08345); experiment: Inhibition of DDR1 dyscoidin domain assessed as enzyme activity at 1 uM relative to untreated control; set-up: scale not given: the % may be the effect or the level left
# [13] = biological target: Fibroblast growth factor receptor 4 (Homo sapiens) (UniProt P22455); experiment: Inhibition of FGFR4 assessed as enzyme activity at 1 uM relative to untreated control; set-up: scale not given: the % may be the effect or the level left
# [14] = biological target: Ephrin type-A receptor 5 (Homo sapiens) (UniProt P54756); experiment: Inhibition of EPHA5 assessed as enzyme activity at 1 uM relative to untreated control; set-up: scale not given: the % may be the effect or the level left
# [15] = biological target: Serine/threonine-protein kinase PAK 2 (Homo sapiens) (UniProt Q13177); experiment: Inhibition of PAK2 assessed as enzyme activity at 1 uM relative to untreated control; set-up: scale not given: the % may be the effect or the level left
# [16] = system: Epidermal growth factor receptor (Homo sapiens), P00533 [G719S]; experiment: Inhibition of EGFR G719S mutant assessed as enzyme activity at 1 uM relative to untreated control; format: protein assay; set-up: scale not given: the % may be the effect or the level left
# [17] = biological target: Myosin-IIIb (Homo sapiens) (UniProt Q8WXR4); experiment: Inhibition of MYO3B assessed as enzyme activity at 1 uM relative to untreated control; set-up: scale not given: the % may be the effect or the level left
# [18] = biological target: Serine/threonine-protein kinase Nek6 (Homo sapiens) (UniProt Q9HC98); experiment: Inhibition of NEK6 assessed as enzyme activity at 1 uM relative to untreated control; set-up: scale not given: the % may be the effect or the level left
# Angiopoietin-1 receptor = Angiopoietin-1 receptor (Homo sapiens, UniProt Q02763); experiment: Inhibition of Tie2
# [19] = biological target: Glycogen synthase kinase-3 beta (Homo sapiens) (UniProt P49841); experiment: Inhibition of GSK3B assessed as enzyme activity at 1 uM relative to untreated control; set-up: scale not given: the % may be the effect or the level left
# [20] = biological target: Serine/threonine-protein kinase 3 (Homo sapiens) (UniProt Q13188); experiment: Inhibition of MST2 assessed as enzyme activity at 1 uM relative to untreated control; set-up: scale not given: the % may be the effect or the level left
# Chain of Serine/threonine-protein kinase 3 (Homo sapiens) (Q13188 whole entry): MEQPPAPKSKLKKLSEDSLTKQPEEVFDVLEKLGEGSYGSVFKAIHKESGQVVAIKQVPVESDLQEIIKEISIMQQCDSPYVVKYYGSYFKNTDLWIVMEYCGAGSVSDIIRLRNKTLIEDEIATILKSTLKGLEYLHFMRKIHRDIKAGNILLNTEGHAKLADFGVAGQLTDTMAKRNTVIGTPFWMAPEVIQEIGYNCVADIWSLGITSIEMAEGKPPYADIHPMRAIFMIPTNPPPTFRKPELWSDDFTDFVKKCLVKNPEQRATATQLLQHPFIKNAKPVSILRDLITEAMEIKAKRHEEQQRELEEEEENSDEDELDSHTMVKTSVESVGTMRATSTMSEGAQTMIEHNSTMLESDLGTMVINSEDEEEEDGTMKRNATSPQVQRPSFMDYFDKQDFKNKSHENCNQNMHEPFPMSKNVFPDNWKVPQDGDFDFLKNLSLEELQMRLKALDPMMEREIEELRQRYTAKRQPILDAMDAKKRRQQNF
# [21] = biological target: Tyrosine-protein kinase Srms (Homo sapiens) (UniProt Q9H3Y6); experiment: Inhibition of SRMS assessed as enzyme activity at 1 uM relative to untreated control; set-up: scale not given: the % may be the effect or the level left
# [22] = biological target: Fibroblast growth factor receptor 1 (Homo sapiens) (UniProt P11362); experiment: Inhibition of FGFR1 assessed as enzyme activity at 1 uM relative to untreated control; set-up: scale not given: the % may be the effect or the level left
# [23] = biological target: Leukocyte tyrosine kinase receptor (Homo sapiens) (UniProt P29376); experiment: Inhibition of LTK assessed as enzyme activity at 1 uM relative to untreated control; set-up: scale not given: the % may be the effect or the level left
# Chain of Leukocyte tyrosine kinase receptor (Homo sapiens) (P29376 whole entry): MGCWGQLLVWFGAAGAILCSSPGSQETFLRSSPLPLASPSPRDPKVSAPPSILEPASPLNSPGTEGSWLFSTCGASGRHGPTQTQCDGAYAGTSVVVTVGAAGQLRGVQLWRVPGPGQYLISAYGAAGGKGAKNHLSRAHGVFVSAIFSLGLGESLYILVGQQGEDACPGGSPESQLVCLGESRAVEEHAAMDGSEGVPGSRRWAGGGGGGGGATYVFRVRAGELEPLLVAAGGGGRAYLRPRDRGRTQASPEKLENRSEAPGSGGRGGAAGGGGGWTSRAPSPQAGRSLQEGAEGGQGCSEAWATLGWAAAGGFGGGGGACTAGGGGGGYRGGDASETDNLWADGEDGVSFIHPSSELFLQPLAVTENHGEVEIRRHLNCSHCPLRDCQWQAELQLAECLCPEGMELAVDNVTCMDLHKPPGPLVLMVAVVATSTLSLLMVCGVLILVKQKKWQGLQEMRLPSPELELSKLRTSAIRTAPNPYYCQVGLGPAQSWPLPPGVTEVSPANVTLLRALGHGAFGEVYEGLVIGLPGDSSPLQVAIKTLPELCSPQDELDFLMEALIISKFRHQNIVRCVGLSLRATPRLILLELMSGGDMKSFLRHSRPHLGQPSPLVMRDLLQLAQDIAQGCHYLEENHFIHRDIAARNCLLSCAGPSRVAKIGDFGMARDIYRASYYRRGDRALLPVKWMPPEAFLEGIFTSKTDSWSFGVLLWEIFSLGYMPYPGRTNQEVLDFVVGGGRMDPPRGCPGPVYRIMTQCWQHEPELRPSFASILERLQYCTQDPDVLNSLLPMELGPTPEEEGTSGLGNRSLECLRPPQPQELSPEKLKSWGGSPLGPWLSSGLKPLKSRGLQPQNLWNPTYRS
# [24] = biological target: Epidermal growth factor receptor (Homo sapiens) (UniProt P04626+P00533+Q15303+P21860); experiment: Inhibition of EGFR S752-I759del mutant assessed as enzyme activity at 1 uM relative to untreated control; format: protein assay; set-up: scale not given: the % may be the effect or the level left
# [25] = biological target: Receptor tyrosine-protein kinase erbB-2 (Homo sapiens) (UniProt P04626); experiment: Inhibition of ERBB2 assessed as enzyme activity at 1 uM relative to untreated control; set-up: scale not given: the % may be the effect or the level left
# [26] = biological target: Tyrosine-protein kinase Yes (Homo sapiens) (UniProt P07947); experiment: Inhibition of YES assessed as enzyme activity at 1 uM relative to untreated control; set-up: scale not given: the % may be the effect or the level left
# Chain of Tyrosine-protein kinase Yes (Homo sapiens) (P07947 2-543 limits assumed): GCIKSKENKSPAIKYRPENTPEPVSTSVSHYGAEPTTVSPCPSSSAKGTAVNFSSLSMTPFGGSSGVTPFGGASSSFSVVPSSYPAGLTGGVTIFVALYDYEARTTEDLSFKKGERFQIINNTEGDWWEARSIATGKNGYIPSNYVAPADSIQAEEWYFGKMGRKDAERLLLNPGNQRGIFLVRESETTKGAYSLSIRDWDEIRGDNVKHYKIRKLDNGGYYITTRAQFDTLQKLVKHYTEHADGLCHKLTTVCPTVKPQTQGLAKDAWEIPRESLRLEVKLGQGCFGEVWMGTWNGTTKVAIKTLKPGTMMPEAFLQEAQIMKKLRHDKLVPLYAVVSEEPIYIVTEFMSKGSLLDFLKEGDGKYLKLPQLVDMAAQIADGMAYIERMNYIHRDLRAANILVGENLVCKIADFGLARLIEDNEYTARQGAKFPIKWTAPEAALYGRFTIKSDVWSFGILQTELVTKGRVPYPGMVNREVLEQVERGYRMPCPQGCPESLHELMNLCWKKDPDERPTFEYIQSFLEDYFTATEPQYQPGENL
# [27] = biological target: Cyclin-dependent kinase 14 (Homo sapiens) (UniProt O94921); experiment: Inhibition of PFTK1 assessed as enzyme activity at 1 uM relative to untreated control; set-up: scale not given: the % may be the effect or the level left
# [28] = system: Mast/stem cell growth factor receptor Kit (Homo sapiens), P10721 [D816V]; experiment: Inhibition of KIT D816V mutant assessed as enzyme activity at 1 uM relative to untreated control; set-up: scale not given: the % may be the effect or the level left
# [29] = biological target: Serine/threonine-protein kinase LATS2 (Homo sapiens) (UniProt Q9NRM7); experiment: Inhibition of LATS2 assessed as enzyme activity at 1 uM relative to untreated control; set-up: scale not given: the % may be the effect or the level left
# [30] = biological target: Mitogen-activated protein kinase kinase kinase 10 (Homo sapiens) (UniProt Q02779); experiment: Inhibition of MLK2 assessed as enzyme activity at 1 uM relative to untreated control; set-up: scale not given: the % may be the effect or the level left
# [31] = biological target: Mitogen-activated protein kinase kinase kinase 3 (Homo sapiens) (UniProt Q99759); experiment: Inhibition of MAP3K3 assessed as enzyme activity at 1 uM relative to untreated control; set-up: scale not given: the % may be the effect or the level left
# [32] = biological target: ALK tyrosine kinase receptor (Homo sapiens) (UniProt Q9UM73); experiment: Inhibition of ALK assessed as enzyme activity at 1 uM relative to untreated control; set-up: scale not given: the % may be the effect or the level left
# [33] = biological target: cAMP-dependent protein kinase catalytic subunit PRKX (Homo sapiens) (UniProt P51817); experiment: Inhibition of PRKX assessed as enzyme activity at 1 uM relative to untreated control; set-up: scale not given: the % may be the effect or the level left
# Chain of cAMP-dependent protein kinase catalytic subunit PRKX (Homo sapiens) (P51817 whole entry, canonical isoform): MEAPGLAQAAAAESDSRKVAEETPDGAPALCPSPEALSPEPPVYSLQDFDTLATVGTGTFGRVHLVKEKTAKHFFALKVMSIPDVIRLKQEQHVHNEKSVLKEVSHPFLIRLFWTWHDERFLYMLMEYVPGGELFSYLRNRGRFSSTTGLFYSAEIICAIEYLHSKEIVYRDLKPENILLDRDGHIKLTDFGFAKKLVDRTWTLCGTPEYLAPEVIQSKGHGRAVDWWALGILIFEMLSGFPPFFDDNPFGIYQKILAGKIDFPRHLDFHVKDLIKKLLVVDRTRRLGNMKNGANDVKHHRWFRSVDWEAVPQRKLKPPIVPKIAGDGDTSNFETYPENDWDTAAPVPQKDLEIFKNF
# [34] = biological target: Phosphatidylinositol 4,5-bisphosphate 3-kinase catalytic subunit delta isoform (Homo sapiens) (UniProt O00329); experiment: Inhibition of PIK3CD assessed as enzyme activity at 1 uM relative to untreated control; set-up: scale not given: the % may be the effect or the level left
# [35] = biological target: Mitogen-activated protein kinase 15 (Homo sapiens) (UniProt Q8TD08); experiment: Inhibition of ERK8 assessed as enzyme activity at 1 uM relative to untreated control; set-up: scale not given: the % may be the effect or the level left
# [36] = biological target: NUAK family SNF1-like kinase 2 (Homo sapiens) (UniProt Q9H093); experiment: Inhibition of SNARK assessed as enzyme activity at 1 uM relative to untreated control; set-up: scale not given: the % may be the effect or the level left
# Chain of NUAK family SNF1-like kinase 2 (Homo sapiens) (Q9H093 whole entry): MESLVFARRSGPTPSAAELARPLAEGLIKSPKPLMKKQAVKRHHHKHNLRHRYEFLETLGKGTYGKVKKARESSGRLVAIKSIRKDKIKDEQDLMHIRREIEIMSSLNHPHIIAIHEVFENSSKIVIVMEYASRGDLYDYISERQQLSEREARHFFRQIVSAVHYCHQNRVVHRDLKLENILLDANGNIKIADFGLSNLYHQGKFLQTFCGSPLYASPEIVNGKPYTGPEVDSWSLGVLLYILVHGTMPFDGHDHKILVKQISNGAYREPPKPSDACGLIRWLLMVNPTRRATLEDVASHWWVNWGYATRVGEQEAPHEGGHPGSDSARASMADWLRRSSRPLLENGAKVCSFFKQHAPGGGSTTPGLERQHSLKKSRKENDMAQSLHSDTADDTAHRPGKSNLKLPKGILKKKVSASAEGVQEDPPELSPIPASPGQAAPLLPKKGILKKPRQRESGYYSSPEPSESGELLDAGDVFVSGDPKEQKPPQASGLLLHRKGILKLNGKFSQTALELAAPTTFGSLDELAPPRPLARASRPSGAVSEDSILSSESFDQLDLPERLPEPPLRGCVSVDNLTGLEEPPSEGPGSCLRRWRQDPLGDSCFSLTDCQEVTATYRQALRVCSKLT
# [37] = Inhibition of FGFR3 G697C mutant assessed as enzyme activity at 1 uM relative to untreated control; set-up: scale not given: the % may be the effect or the level left
compound,measurement,setting,value
Cc1ccc2c(Nc3ccc(Cl)cc3)nccc2c1Nc1ncccc1-c1ncnc2[nH]cnc12.Cl.Cl.Cl,Activity,[1],100%
same,Activity,[2],96%
same,Activity,[3],96%
same,Activity,[4],100%
same,Activity,[5],75%
same,clearance,[6],3.17 mL/min
same,Activity,[7],79%
same,Activity,[8],97%
same,Activity,[9],92%
same,Activity,[10],79%
same,Activity,[11],90%
same,Activity,[12],0.1%
same,Activity,[13],100%
same,Activity,[14],16%
same,Activity,[15],85%
same,Activity,[16],92%
same,Activity,[17],68%
same,Activity,[18],100%
same,IC50,Angiopoietin-1 receptor,120 nM
same,Activity,[19],100%
same,Activity,[20],100%
same,Activity,[21],100%
same,Activity,[22],80%
same,Activity,[23],20%
same,Activity,[24],90%
same,Activity,[25],97%
same,Activity,[26],52%
same,Activity,[27],100%
same,Activity,[28],100%
same,Activity,[29],85%
same,Activity,[30],99%
same,Activity,[31],40%
same,Activity,[32],96%
same,Activity,[33],65%
same,Activity,[34],100%
same,Activity,[35],98%
same,Activity,[36],100%
same,Activity,[37],100%
